Tests used:
[1] = tested on: brain-derived neurotrophic factor (BDNF); assay: Immunocytochemistry of BDNF in spinal cord after nerve injury; format: in vivo; settings: rat; 14 days after injury; 3 mg/kg po every other day; versus placebo; FIG. 7
Protocol: (§1) Two groups of 11 rats were studied. In each group, the rats received partial nerve ligation of the left sciatic nerve (L5 SNL), as described above. In one group, the rats were treated with test compound; in the other group, the rats were treated with placebo. In each group, 8 animals were used for behavioral studies (for 28 days following surgery), as described below. In each group, 3 animals were used for tissue analysis (at 14 days following surgery), as described below.
(§2) Rats were treated with treatment solution or a placebo, orally, starting on the day after surgery and subsequently every other day for 4 weeks.
For treated animals, treatment solution was administered orally (po), by oral gavage, to give a dose of 3 mg/kg. […]
Multichannel fluorescence (DAPI-FITC-Texas Red filter set) images were captured using a Zeiss LSM 700 laser-scanning confocal microscope. […] Axiovision software was used to collect information on pixel immunoreactivity used for quantitative purposes. […]
FIG. 7 is a bar graph showing the BDNF level (arbitray units) in the dorsal horn ipsilateral to peripheral nerve injury for (a) rats treated with placebo and (b) rats treated with BOBA-001. Five serial sections per injured cord analysed, from 3 animals per group (n=3). […]

[2] = tested on: rats subjected to L5 SNL; assay: Pain threshold, Randall-Selitto test (paw pressure threshold); format: in vivo; settings: rat L5 SNL; 3 mg/kg po every other day for 4 weeks; versus placebo; FIG. 4
Text: (§3) Adult male Sprague-Dawley rats (150-200 g) were housed under natural light: dark cycles and provided water and food ad lib. They were habituated to the testing paradigms for 3-5 days before data collection. All protocols were approved by the Animal Care and Use Committee of Kings College London and UK Home Office.
(§4) Animals were studied using the standard model for neuropathic pain (lumbar 5 spinal nerve ligation, L5 SNL; see, e.g., Kim et al., 1992). This is the most widely used model in neuropathic pain studies because of its high reproducibility of spontaneous and evoked pain (hyperalgesia, allodynia) and the absence of autotomy (see, e.g., Barrot, 2012; Huang et al., 2016).
(§5) Adult rats received a partial nerve ligation of the left sciatic nerve (see, e.g., Seltzer et al., 1990) under isoflurane (Abbott Animal Health) inhalation anesthesia. A small incision was made midway up the left thigh to expose the sciatic nerve. […]
(§6) Pain thresholds were measured according to the methods described below, baseline at 1 day prior to surgery, and at 1, 6, 9, 16, 23, and 28 days after surgery.
Mechanical nociceptive thresholds were evaluated using an Analgesy-Meter (Ugo Basile, Comerio, Italy) (see, e.g., Raghavendra et al., 2003). […] The pressure required to elicit paw withdrawal, the paw pressure threshold, in grams, was determined. […]

[3] = tested on: rats subjected to L5 SNL; assay: Pain threshold, mechanical allodynia (von Frey hairs) after nerve ligation; format: in vivo; settings: rat L5 SNL; 3 mg/kg po every other day for 4 weeks; versus placebo; FIG. 1
Text: as §3, §4, §5, §6
Static mechanical withdrawal thresholds were assessed by applying von Frey hairs (Touch Test, Stoelting, Ill., USA) to the plantar surface of the hind paw. […] A positive response was recorded when a 40% withdrawal response occurred over 5 applications. […]

[4] = tested on: rats subjected to L5 SNL; assay: Pain threshold, thermal hyperalgesia, cold plate; format: in vivo; settings: rat L5 SNL; 3 mg/kg po every other day for 4 weeks; plate at 4 °C; versus placebo; FIG. 3
Text: as §3, §4, §5, §6
Withdrawal of the hind paw in response to painful cold stimulation was assessed using an Incremental Hot/Cold Plate (IITC Life Sciences) set at 4±0.1° C. […] The latency to withdraw the paw was measured to the nearest 0.01 seconds. […]

[5] = tested on: tumour necrosis factor α (TNFα); assay: RT-qPCR analysis of TNFα expression in spinal cord after nerve injury; format: in vivo; settings: rat; 14 days after injury; 3 mg/kg po every other day; versus placebo; FIG. 5
Protocol: as §1, §2
(§7) For treated animals, treatment solution was administered orally (po), by oral gavage, to give a dose of 3 mg/kg.
(§8) Fourteen days after injury, three rats from each group were sacrificed. […] Total RNA was isolated with the Qiagen RNeasy® Mini kit and reverse transcribed with a QuantiTect® Reverse Transcription kit (Qiagen). Levels of tumour necrosis factor α (TNFα) and tumour necrosis factor receptor 1 (TNFR1) expression were quantitated in triplicate, relative to glyceraldehyde 3-phosphate dehydrogenase (GAPDH) and triplicate non-template controls for each gene, by RT-qPCR analysis on a LightCycler® 480 instrument with LightCycler® SYBR® Green 1 Master reagent (Roche). […]

[6] = tested on: axonal outgrowth; settings: models of nerve injury; earlier work of the Applicant (Borthwick et al., 2016); cited from earlier work
[7] = tested on: rats subjected to L5 SNL; assay: Standard model for neuropathic pain (L5 SNL), behavioural studies overall; format: in vivo; settings: rat L5 SNL; treated for 4 weeks, 3 mg/kg po every other day; versus placebo
Text: as §3, §4
as §5, with “nerve. The nerve was carefully cleared of surrounding connective tissues at a site near the trochanter just distal to the point at which the posterior biceps semitendinosus nerve branches off the common sciatic nerve.” for “nerve.”
as §6

[8] = tested on: rats subjected to L5 SNL; assay: Pain threshold, thermal hyperalgesia, hot plate (radiant heat paw withdrawal latency); format: in vivo; settings: rat L5 SNL; 3 mg/kg po every other day for 4 weeks; versus placebo; FIG. 2
Text: as §3, §4
as §5, with “nerve. The nerve was carefully cleared of surrounding connective tissues at a site near the trochanter just distal to the point at which the posterior biceps semitendinosus nerve branches off the common sciatic nerve.” for “nerve.”
as §6
Thermal hyperalgesia was assessed using a modified method of Hargreaves et al., 1988. […]

[9] = tested on: tumour necrosis factor receptor 1 (TNFR1); assay: RT-qPCR analysis of TNFR1 expression in spinal cord after nerve injury; format: in vivo; settings: rat; 14 days after injury; 3 mg/kg po every other day; versus placebo; FIG. 6
Protocol: as §1, §2, §7, §8

In the case of `Cc1ccc(C)c2oc(-c3nc(-c4ccc(C(=O)O)cc4)no3)cc12` [BOBA-001, 4-(5-(4,7-Dimethylbenzofuran-2-yl)-1,2,4-oxadiazol-3-yl)benzoic acid], the “BDNF level in the dorsal horn ipsilateral to peripheral nerve injury” value [1] is reported as “significantly down-regulated”, the “Randall Sellito paw withdrawal threshold (mechanical threshold)” value [2] is reported as “significant improvement” and the “mechanical paw withdrawal threshold (von Frey)” value [3] is reported as “significant improvement”. The “cold plate paw withdrawal (thermal threshold)” value [4] was “significant improvement”, the “TNFα: GAPDH expression ratio in the dorsal horn ipsilateral to peripheral nerve injury” value [5] was “significantly down-regulated” and the axonal outgrowth [6] was “causes axonal outgrowth”. For the same compound, the amelioration of pain [7] was “significant amelioration of pain”, the “hot plate paw withdrawal (thermal threshold)” value [8] was “significant improvement” and the “TNFR1: GAPDH expression ratio in the dorsal horn ipsilateral to peripheral nerve injury” value [9] was “significantly down-regulated”.
